Data reported in patent publication US12226412B2, “Heteroaryl-ketone fused azadecalin glucocorticoid receptor modulators” (Corcept Therapeutics, Inc., priority 2012, dated 2025).
Where two headings read alike, the source gives them in different places.

Columns and labels:
human recombinant GR = biological target: T1, human recombinant GR (Homo sapiens, UniProt P04150); assay: Human glucocorticoid receptor (GR) fluorescence polarisation (FP) binding assay
T1 construct: purchased PanVera P2812
T1 sequence (P04150 1-777): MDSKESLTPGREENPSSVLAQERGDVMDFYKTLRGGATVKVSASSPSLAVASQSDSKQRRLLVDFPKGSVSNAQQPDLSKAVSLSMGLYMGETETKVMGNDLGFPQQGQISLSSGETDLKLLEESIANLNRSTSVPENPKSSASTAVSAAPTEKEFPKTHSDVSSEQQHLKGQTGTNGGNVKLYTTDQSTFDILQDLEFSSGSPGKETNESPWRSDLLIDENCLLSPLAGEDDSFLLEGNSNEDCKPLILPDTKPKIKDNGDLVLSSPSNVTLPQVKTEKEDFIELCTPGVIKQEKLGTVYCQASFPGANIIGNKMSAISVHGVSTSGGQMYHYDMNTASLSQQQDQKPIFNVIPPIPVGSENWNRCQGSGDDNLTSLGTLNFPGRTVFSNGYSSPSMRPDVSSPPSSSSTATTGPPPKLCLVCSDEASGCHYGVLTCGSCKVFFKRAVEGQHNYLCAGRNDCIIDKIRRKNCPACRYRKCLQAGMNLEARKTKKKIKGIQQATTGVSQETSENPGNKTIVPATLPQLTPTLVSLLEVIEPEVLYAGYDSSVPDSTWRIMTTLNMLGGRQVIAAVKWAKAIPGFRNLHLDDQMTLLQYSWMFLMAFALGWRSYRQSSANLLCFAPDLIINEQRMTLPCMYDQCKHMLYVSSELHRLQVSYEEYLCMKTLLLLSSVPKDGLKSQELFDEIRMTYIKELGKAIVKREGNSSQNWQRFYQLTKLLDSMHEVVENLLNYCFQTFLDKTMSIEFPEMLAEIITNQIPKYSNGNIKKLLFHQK
How it was run: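 Competition fluorescence polarisation: 0.5 nM GS Red labelled glucocorticoid and 1 nM recombinant human GR with 8-point half-log compound series, 1% DMSO, 4 h room temperature, potassium phosphate pH 7.4 buffer with molybdate, EDTA, DTT. Affinity derived from the drop in polarisation, normalised to blank wells.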

[1] = system: induction of TAT by dexamethasone in HepG2 cells; assay: HepG2 tyrosine aminotransferase (TAT) assay; assay type: cell-based, human
[2] = human recombinant GR, fluorescence polarisation binding assay, read-out: GR binding
[3] = HepG2 cells, challenge of 100 nM dexamethasone, Ki from IC50 by Cheng and Prusoff equation

| Ki (human recombinant GR; [2]) | Compound | Ki [1, 3] | Ki (human recombinant GR) | Ki [1] |
| --- | --- | --- | --- | --- |
| < 0.0005 µM | Cc1cccc(S(=O)(=O)N2CCC3=Cc4c(cnn4-c4ccc(F)cc4)C[C@]3(C(=O)c3cscn3)C2)c1 [Example 11F, (R)-(1-(4-fluorophenyl)-6-(m-tolylsulfonyl)-4,4a,5,6,7,8-hexahydro-1H-pyrazolo [3,4-g]isoquinolin-4a-yl)(thiazol-4-yl)methanone] | 0.02 to 0.1 µM |  |  |
| < 0.0005 µM | CCn1ncc(S(=O)(=O)N2CCC3=Cc4c(cnn4-c4ccc(F)cc4)C[C@]3(C(=O)c3ccccn3)C2)n1 [Example 11CH, (R)-(6-((2-ethyl-2H-1,2,3-triazol-4-yl)sulfonyl)-1-(4-fluorophenyl)-4,4a,5,6,7,8-hexahydro-1H-pyrazolo[3,4-g]isoquinolin-4a-yl)(pyridin-2-yl)methanone] | < 0.02 µM |  |  |
| 0.0005 to 0.001 µM | CC(C)n1nncc1S(=O)(=O)N1CCC2=Cc3c(cnn3-c3ccc(F)cc3)C[C@]2(C(=O)c2ccccn2)C1 [Example 11CU, (R)-(1-(4-fluorophenyl)-6-((1-isopropyl-1H-1,2,3-triazol-5-yl)sulfonyl)-4,4a,5,6,7,8-hexahydro-1H-pyrazolo[3,4-g]isoquinolin-4a-yl)(pyridin-2-yl)methanone] | 0.02 to 0.1 µM |  |  |
| < 0.0005 µM | O=C(c1ccccn1)[C@]12Cc3cnn(-c4ccccc4)c3C=C1CCN(S(=O)(=O)c1ccc(Cl)c(Cl)c1)C2 [Example 15B, (R)-(6-((3,4-dichlorophenyl)sulfonyl)-1-phenyl-4,4a,5,6,7,8-hexahydro-1H-pyrazolo[3,4-g]isoquinolin-4a-yl)(pyridin-2-yl)methanone] | < 0.02 µM |  |  |
| < 0.0005 µM | CN(C)c1ccc(S(=O)(=O)N2CCC3=Cc4c(cnn4-c4ccc(F)cc4)C[C@]3(C(=O)c3ccccn3)C2)cn1 [Example 16, (R)-(6-((6-(dimethylamino)pyridin-3-yl)sulfonyl)-1-(4-fluorophenyl)-4,4a,5,6,7,8-hexahydro-1H-pyrazolo[3,4-g]isoquinolin-4a-yl)(pyridin-2-yl)methanone] | 0.02 to 0.1 µM |  |  |
| < 0.0005 µM | Cc1ccnc(C(=O)[C@]23Cc4cnn(-c5ccc(F)cc5)c4C=C2CCN(S(=O)(=O)c2cccc(C#N)c2)C3)c1 [Example 11S, (R)-3-((1-(4-fluorophenyl)-4a-(4-methylpicolinoyl)-4a,5,7,8-tetrahydro-1H-pyrazolo[3,4-g]isoquinolin-6 (4H)-yl)sulfonyl)benzonitrile] | < 0.02 µM |  |  |
| < 0.0005 µM | Cc1ccc(C(=O)[C@]23Cc4cnn(-c5ccc(F)cc5)c4C=C2CCN(S(=O)(=O)c2cccc(C)c2)C3)nc1 [Example 12F, (R)-(1-(4-fluorophenyl)-6-(m-tolylsulfonyl)-4,4a,5,6,7,8-hexahydro-1H-pyrazolo [3,4-g]isoquinolin-4a-yl)(5-methylpyridin-2-yl)methanone] | < 0.02 µM |  |  |
| < 0.0005 µM | COc1ccc(S(=O)(=O)N2CCC3=Cc4c(cnn4-c4ccc(F)cc4)C[C@]3(C(=O)c3ccccn3)C2)cn1 [Example 2R, (R)-(1-(4-fluorophenyl)-6-((6-methoxypyridin-3-yl)sulfonyl)-4,4a,5,6,7,8-hexahydro-1H-pyrazolo[3,4-g]isoquinolin-4a-yl)(pyridin-2-yl)methanone] | < 0.02 µM |  |  |
| < 0.0005 µM | CCn1cc(S(=O)(=O)N2CCC3=Cc4c(cnn4-c4ccc(F)cc4)C[C@]3(C(=O)c3ccccn3)C2)cn1 [Example 11AY, (R)-(6-((1-ethyl-1H-pyrazol-4-yl)sulfonyl)-1-(4-fluorophenyl)-4,4a,5,6,7,8-hexahydro-1H-pyrazolo[3,4-g]isoquinolin-4a-yl)(pyridin-2-yl)methanone] | 0.02 to 0.1 µM |  |  |

Second part, the compound before the results:

| Compound | Ki (human recombinant GR; [2]) | Ki [1, 3] | Ki (human recombinant GR) | Ki [1] |
| --- | --- | --- | --- | --- |
| O=C(c1cscn1)[C@]12Cc3cnn(-c4ccc(F)cc4)c3C=C1CCN(S(=O)(=O)c1ccc(Cl)c(Cl)c1)C2 [Example 19, (R)-(6-((3,4-dichlorophenyl)sulfonyl)-1-(4-fluorophenyl)-4,4a,5,6,7,8-hexahydro-1H-pyrazolo[3,4-g]isoquinolin-4a-yl)(thiazol-4-yl)methanone] | < 0.0005 µM | < 0.02 µM |  |  |
| CCCn1ncc(S(=O)(=O)N2CCC3=Cc4c(cnn4-c4ccc(F)cc4)C[C@]3(C(=O)c3cscn3)C2)n1 [Example 11CQ, (R)-(1-(4-fluorophenyl)-6-((2-propyl-2H-1,2,3-triazol-4-yl)sulfonyl)-4,4a,5,6,7,8-hexahydro-1H-pyrazolo[3,4-g]isoquinolin-4a-yl)(thiazol-4-yl)methanone] | < 0.0005 µM | < 0.02 µM |  |  |
| Cc1nnc(C(=O)[C@]23Cc4cnn(-c5ccc(F)cc5)c4C=C2CCN(S(=O)(=O)c2ccc(C(F)(F)F)cc2)C3)o1 [Example 1D, (R)-(1-(4-fluorophenyl)-6-((4-(trifluoromethyl)phenyl)sulfonyl)-4,4a,5,6,7,8-hexahydro-1H-pyrazolo[3,4-g]isoquinolin-4a-yl)(5-methyl-1,3,4-oxadiazol-2-yl)methanone] | > 0.001 µM | ≥ 0.1 µM |  |  |
| Cc1ncc(S(=O)(=O)N2CCC3=Cc4c(cnn4-c4ccc(F)cc4)C[C@]3(C(=O)c3cc(C(F)(F)F)ccn3)C2)n1C [Example 11BW, (R)-(6-((1,2-dimethyl-1H-imidazol-5-yl)sulfonyl)-1-(4-fluorophenyl)-4,4a,5,6,7,8-hexahydro-1H-pyrazolo[3,4-g]isoquinolin-4a-yl)(4-(trifluoromethyl)pyridin-2-yl)methanone] | > 0.001 µM | 0.02 to 0.1 µM |  |  |
| CCCn1nncc1S(=O)(=O)N1CCC2=Cc3c(cnn3-c3ccc(F)cc3)C[C@]2(C(=O)c2cscn2)C1 [Example 11CR, (R)-(1-(4-fluorophenyl)-6-((1-propyl-1H-1,2,3-triazol-5-yl)sulfonyl)-4,4a,5,6,7,8-hexahydro-1H-pyrazolo[3,4-g]isoquinolin-4a-yl)(thiazol-4-yl)methanone] | 0.0005 to 0.001 µM | 0.02 to 0.1 µM |  |  |
| O=C(c1ccccn1)[C@]12Cc3cnn(-c4cccnc4)c3C=C1CCN(S(=O)(=O)c1cccc(C(F)(F)F)c1)C2 [Example 15A, (R)-pyridin-2-yl(1-(pyridin-3-yl)-6-((3-(trifluoromethyl)phenyl)sulfonyl)-4,4a,5,6,7,8-hexahydro-1H-pyrazolo[3,4-g]isoquinolin-4a-yl)methanone] | < 0.0005 µM | 0.02 to 0.1 µM |  |  |
| Cc1ccnc(C(=O)[C@]23Cc4cnn(-c5ccc(F)cc5)c4C=C2CCN(S(=O)(=O)c2cccc(C(F)(F)F)c2)C3)c1 [Example 11AG, (R)-(1-(4-fluorophenyl)-6-((3-(trifluoromethyl)phenyl)sulfonyl)-4,4a,5,6,7,8-hexahydro-1H-pyrazolo[3,4-g]isoquinolin-4a-yl)(4-methylpyridin-2-yl)methanone] | < 0.0005 µM | < 0.02 µM |  |  |
| Cc1ccnc(C(=O)[C@]23Cc4cnn(-c5ccc(F)cc5)c4C=C2CCN(S(=O)(=O)c2ccc(C(F)(F)F)c(F)c2)C3)c1 [Example 11AS, (R)-(6-((3-fluoro-4-(trifluoromethyl)phenyl)sulfonyl)-1-(4-fluorophenyl)-4,4a,5,6,7,8-hexahydro-1H-pyrazolo[3,4-g]isoquinolin-4a-yl)(4-methylpyridin-2-yl)methanone] | < 0.0005 µM | < 0.02 µM |  |  |
| O=C(c1nccs1)[C@]12Cc3cnn(-c4ccc(F)cc4)c3C=C1CCN(S(=O)(=O)c1ccc(Cl)c(Cl)c1)C2 [Example 12N, (R)-(6-((3,4-dichlorophenyl)sulfonyl)-1-(4-fluorophenyl)-4,4a,5,6,7,8-hexahydro-1H-pyrazolo[3,4-g]isoquinolin-4a-yl)(thiazol-2-yl)methanone] | 0.0005 to 0.001 µM | < 0.02 µM |  |  |
| Cn1ccnc1S(=O)(=O)N1CCC2=Cc3c(cnn3-c3ccc(F)cc3)C[C@]2(C(=O)c2cc(C(F)(F)F)ccn2)C1 [Example 11BX, (R)-(1-(4-fluorophenyl)-6-((1-methyl-1H-imidazol-2-yl)sulfonyl)-4,4a,5,6,7,8-hexahydro-1H-pyrazolo[3,4-g]isoquinolin-4a-yl)(4-(trifluoromethyl)pyridin-2-yl)methanone] | 0.0005 to 0.001 µM | < 0.02 µM |  |  |
| Cc1cccc(S(=O)(=O)N2CCC3=Cc4c(cnn4-c4ccc(F)cc4)C[C@]3(C(=O)c3ccccn3)C2)c1 [Example 2E, (R)-(1-(4-fluorophenyl)-6-(m-tolylsulfonyl)-4,4a,5,6,7,8-hexahydro-1H-pyrazolo[3,4-g]isoquinolin-4a-yl)(pyridin-2-yl)methanone] |  |  | < 0.0005 µM | < 0.02 µM |
| Cc1ccnc(C(=O)[C@]23Cc4cnn(-c5ccc(F)cc5)c4C=C2CCN(S(=O)(=O)c2cccc(C(F)(F)F)n2)C3)c1 [Example 11AE, (R)-(1-(4-fluorophenyl)-6-((6-(trifluoromethyl)pyridin-2-yl)sulfonyl)-4,4a,5,6,7,8-hexahydro-1H-pyrazolo[3,4-g]isoquinolin-4a-yl)(4-methylpyridin-2-yl)methanone] | < 0.0005 µM | < 0.02 µM |  |  |
